Assay results taken from patent US7868135B2, “Compositions of lipopeptide antibiotic derivatives and methods of use thereof” (priority 2003, dated 2011).
Starred links: 1 amine or outer side, 2 acyl side, 3 side chain; linkers in the order of their positions; H or OH if unused. Positions of bridges follow the written chain, without caps; N, C: chain ends. Non-standard residues stand in square brackets, D forms with d. Residues, ends and D or L forms follow the SMILES beside them. ξ: configuration not given here. *: point of attachment. X40 = CC(NC(=O)CCN1CCNCC1)C(N[*:1])C(=O)[*:2]; ξAbu(3ξ-NHCOCH2NH2) = CC(NC(=O)CN)C(N)C(=O)O; ξAbu(βξ-NH2) = CC(N[*:3])C(N[*:1])C(=O)[*:2]; Benzoyl(3-OPh) = O=C(c1cccc(Oc2ccccc2)c1)*; Pentadecanoyl = CCCCCCCCCCCCCCC(=O)*; ξAsp(βξ-Me) = CC(C(=O)O)C(N)C(=O)O; X1 = O=C(Cc1ccc(N[*:1])cc1)[*:2]; X5 = CCCCCCCCCCCCn1cc(C(=O)*)nn1; Myristoyl = CCCCCCCCCCCCCC(=O)*; NHtetradecyl = CCCCCCCCCCCCCCN*; ξAbu(3ξ-NH2) = CC(N)C(N)C(=O)O; Decanoyl = CCCCCCCCCC(=O)*; X19 = CCCCCCCCCCS(=O)(=O)*; 4Abz = Nc1ccc(C(=O)O)cc1; Pip = O=C(O)[CH]1CCCCN1; Hexanoyl = CCCCCC(=O)*; ξD = NC(CC(=O)O)C(=O)O; ξPip = O=C(O)C1CCCCN1; CO = O=C([*:1])[*:2]; ξV = CC(C)C(N)C(=O)O; ξP = O=C(O)C1CCCN1

Each molecule was assayed on Staphylococcus aureus (MSSA). Conditions: 24 h.
Outline: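 Broth microdilution MIC per NCCLS M7-A6 with doubling serial dilutions, in cation-adjusted Mueller-Hinton broth supplemented with 0.625 mM calcium.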

Molecule	MIC [µg/mL]
CCCCCCCC(=O)Nc1ccc(C(=O)NC(CC(=O)O)C(=O)NC2C(=O)N3CCCCC3C(=O)NC(C(C)C(=O)O)C(=O)NC(CC(=O)O)C(=O)NCC(=O)NC(CC(=O)O)C(=O)NCC(=O)NC(C(C)N)C(=O)NC(C(C)C)C(=O)N3CCCC3C(=O)NC2C)cc1 (centres unmarked) [Compound 282, C8-PABA-Amphomycin]	32
CCCCCCCCCCCCCCC(=O)NC(CC(=O)O)C(=O)NC1C(=O)N2CCCCC2C(=O)NC(C(C)C(=O)O)C(=O)NC(CC(=O)O)C(=O)NCC(=O)NC(CC(=O)O)C(=O)NCC(=O)NC(C(C)NC(=O)[C@H]2CCCN2C(=O)[C@H](N)CCCCN)C(=O)NC(C(C)C)C(=O)N2CCCC2C(=O)NC1C (stereo partly drawn) [Compound 151, C15-Amphomycin-9-(D-Pro)-(D-Lys)]	16
CCCCCCCCCCCCC(=O)NC(CC(=O)O)C(=O)NC1C(=O)N2CCCCC2C(=O)NC(C(C)C(=O)O)C(=O)NC(CC(=O)O)C(=O)NCC(=O)NC(CC(=O)O)C(=O)NCC(=O)NC(C(C)N)C(=O)NC(C(C)C)C(=O)N2CCCC2C(=O)NC1C (centres unmarked) [Compound 9, C13-Amphomycin]	0.5 to 1
CCCCCCCCCCS(=O)(=O)N[C@@H](Cc1ccccc1)C(=O)NC(CC(=O)O)C(=O)NC1C(=O)N2CCCCC2C(=O)NC(C(C)C(=O)O)C(=O)NC(CC(=O)O)C(=O)NCC(=O)NC(CC(=O)O)C(=O)NCC(=O)NC(C(C)N)C(=O)NC(C(C)C)C(=O)N2CCCC2C(=O)NC1C (stereo partly drawn) [Compound 100, CH3—(CH2)9—SO2-Phe-Amphomycin] (X19-F[ξD][ξAbu(βξ-NH2)][ξPip][ξAsp(βξ-Me)][ξD]G[ξD]G[ξAbu(3ξ-NH2)][ξV][ξP]; lactam 3-C)	4
CCCCCC(=O)NCC(=O)NC(CC(=O)O)C(=O)NC1C(=O)N2CCCCC2C(=O)NC(C(C)C(=O)O)C(=O)NC(CC(=O)O)C(=O)NCC(=O)NC(CC(=O)O)C(=O)NCC(=O)NC(C(C)N)C(=O)NC(C(C)C)C(=O)N2CCCC2C(=O)NC1C (stereo not drawn) [Compound 358, C6-Gly-Amphomycin] (Hexanoyl-GD[ξAbu(βξ-NH2)][Pip][ξAsp(βξ-Me)]DGDG[ξAbu(3ξ-NH2)]VP; lactam 3-C; configuration not given here)	>64
CCCCCCCCCCCCCCCCNC(=O)NC(CC(=O)O)C(=O)NC1C(=O)N2CCCCC2C(=O)NC(C(C)C(=O)O)C(=O)NC(CC(=O)O)C(=O)NCC(=O)NC(CC(=O)O)C(=O)NCC(=O)NC(C(C)NC(=O)CN)C(=O)NC(C(C)C)C(=O)N2CCCC2C(=O)NC1C (centres unmarked) [Compound 83, CH3—(CH2)15—NH—C(═O)-Amphomycin-9-Gly]	2
CCCCCCCCCCCCCCC(=O)NC(CC(=O)O)C(=O)NC1C(=O)N2CCCCC2C(=O)NC(C(C)C(=O)O)C(=O)NC(CC(=O)O)C(=O)NCC(=O)NC(CC(=O)O)C(=O)NCC(=O)NC(C(C)NC(=O)CCCNC(=O)CCCCCN)C(=O)NC(C(C)C)C(=O)N2CCCC2C(=O)NC1C (centres unmarked) [Compound 72, C15-Amphomycin-9-GABA-Ahx]	8
CCCCCCCCCCCCCCC(=O)NC(CC(=O)O)C(=O)NC1C(=O)N2CCCCC2C(=O)NC(C(C)C(=O)O)C(=O)NC(CC(=O)O)C(=O)NCC(=O)NC(CC(=O)O)C(=O)NCC(=O)NC(C(C)NC(=O)[C@@H](N)[C@@H](C)CC)C(=O)NC(C(C)C)C(=O)N2CCCC2C(=O)NC1C (some centres unmarked) [Compound 36, C15-Amphomycin-9-Ile]	8 to 16
CCCCCCCCCCS(=O)(=O)NCC(=O)NC(CC(=O)O)C(=O)NC1C(=O)N2CCCCC2C(=O)NC(C(C)C(=O)O)C(=O)NC(CC(=O)O)C(=O)NCC(=O)NC(CC(=O)O)C(=O)NCC(=O)NC(C(C)N)C(=O)NC(C(C)C)C(=O)N2CCCC2C(=O)NC1C (stereo not drawn) [Compound 269, CH3—(CH2)9—SO2-Gly-Amphomycin] (X19-GD[ξAbu(βξ-NH2)][Pip][ξAsp(βξ-Me)]DGDG[ξAbu(3ξ-NH2)]VP; lactam 3-C; configuration not given here)	4 to 8
CCCCCCCCCCCCn1cc(C(=O)NC(CC(=O)O)C(=O)NC2C(=O)N3CCCCC3C(=O)NC(C(C)C(=O)O)C(=O)NC(CC(=O)O)C(=O)NCC(=O)NC(CC(=O)O)C(=O)NCC(=O)NC(C(C)N)C(=O)NC(C(C)C)C(=O)N3CCCC3C(=O)NC2C)nn1 (stereo not drawn) [Compound 309, 1-Dodecyl-1H-(1,2,3)-Triazole-4-Carboxyl-Amphomycin] (X5-D[ξAbu(βξ-NH2)][Pip][ξAsp(βξ-Me)]DGDG[ξAbu(3ξ-NH2)]VP; lactam 2-C; configuration not given here)	1
CCCCCCCCCCCCCC(=O)Nc1ccc(C(=O)NCC(=O)NC(CC(=O)O)C(=O)NC2C(=O)N3CCCCC3C(=O)NC(C(C)C(=O)O)C(=O)NC(CC(=O)O)C(=O)NCC(=O)NC(CC(=O)O)C(=O)NCC(=O)NC(C(C)NC(=O)CN)C(=O)NC(C(C)C)C(=O)N3CCCC3C(=O)NC2C)cc1 (stereo not drawn) [Compound 91, C14-PABA-Gly-Amphomycin-9-Gly] ({Myristoyl-4Abz}-GD[ξAbu(βξ-NH2)][Pip][ξAsp(βξ-Me)]DGDG[ξAbu(3ξ-NHCOCH2NH2)]VP; lactam 3-C; configuration not given here)	2
CCCCCCCCCCCCCCC(=O)NC(CC(=O)O)C(=O)NC1C(=O)N2CCCCC2C(=O)NC(C(C)C(=O)O)C(=O)NC(CC(=O)O)C(=O)NCC(=O)NC(CC(=O)O)C(=O)NCC(=O)NC(C(C)NC(=O)[C@@H](N)C(C)C)C(=O)NC(C(C)C)C(=O)N2CCCC2C(=O)NC1C (some centres unmarked) [Compound 169, C15-Amphomycin-9-Val]	4
CCCCCCCCCCCCCCC(=O)NC(CC(=O)O)C(=O)NC1C(=O)N2CCCCC2C(=O)NC(C(C)C(=O)O)C(=O)NC(CC(=O)O)C(=O)NCC(=O)NC(CC(=O)O)C(=O)NCC(=O)NC(C(C)NC(=O)CCN2CCNCC2)C(=O)NC(C(C)C)C(=O)N2CCCC2C(=O)NC1C (stereo not drawn) [Compound 241] (Pentadecanoyl-D[ξAbu(βξ-NH2)][Pip][ξAsp(βξ-Me)]DGDG[X40]VP; lactam 2-C; configuration not given here)	1 to 2
CCCCCCCCCCCCCCC(=O)NC(CC(=O)O)C(=O)NC1C(=O)N2CCCCC2C(=O)NC(C(C)C(=O)O)C(=O)NC(CC(=O)O)C(=O)NCC(=O)NC(CC(=O)O)C(=O)NCC(=O)NC(C(C)NC(=O)[C@@H](N)Cc2ccc([N+](=O)[O-])cc2)C(=O)NC(C(C)C)C(=O)N2CCCC2C(=O)NC1C (some centres unmarked) [Compound 27, C15-Amphomycin-9-(P—NO2-Phe)]	32 to 64
CCCCCCCCCCCCOc1cccc2ccc(C(=O)NC(CC(=O)O)C(=O)NC3C(=O)N4CCCCC4C(=O)NC(C(C)C(=O)O)C(=O)NC(CC(=O)O)C(=O)NCC(=O)NC(CC(=O)O)C(=O)NCC(=O)NC(C(C)N)C(=O)NC(C(C)C)C(=O)N4CCCC4C(=O)NC3C)nc12 (centres unmarked) [Compound 339, (8-Dodecyloxy-Quinoline-2-Carbonyl)-Amphomycin]	0.5
CCCCCCCCCC(=O)Nc1ccc(CC(=O)NC(CC(=O)O)C(=O)NC2C(=O)N3CCCCC3C(=O)NC(C(C)C(=O)O)C(=O)NC(CC(=O)O)C(=O)NCC(=O)NC(CC(=O)O)C(=O)NCC(=O)NC(C(C)N)C(=O)NC(C(C)C)C(=O)N3CCCC3C(=O)NC2C)cc1 (stereo not drawn) [Compound 122, CH3—(CH2)9-(p-Apa)-Amphomycin] (Decanoyl-[X1]D[ξAbu(βξ-NH2)][Pip][ξAsp(βξ-Me)]DGDG[ξAbu(3ξ-NH2)]VP; lactam 3-C; configuration not given here; N-terminus assumed)	8
CC(C)C1NC(=O)C(C(C)N)NC(=O)CNC(=O)C(CC(=O)O)NC(=O)CNC(=O)C(CC(=O)O)NC(=O)C(C(C)C(=O)O)NC(=O)C2CCCCN2C(=O)C(NC(=O)C(CC(=O)O)NC(=O)c2cccc(Oc3ccccc3)c2)C(C)NC(=O)C2CCCN2C1=O (stereo not drawn) [Compound 327, (3-(Phenoxy)-Benzoyl)-Amphomycin] ({Benzoyl(3-OPh)}-D[ξAbu(βξ-NH2)][Pip][ξAsp(βξ-Me)]DGDG[ξAbu(3ξ-NH2)]VP; lactam 2-C; configuration not given here)	>64
CCCCCCCCCCCCCCNC(=O)NCC(=O)NC(CC(=O)O)C(=O)NC1C(=O)N2CCCCC2C(=O)NC(C(C)C(=O)O)C(=O)NC(CC(=O)O)C(=O)NCC(=O)NC(CC(=O)O)C(=O)NCC(=O)NC(C(C)N)C(=O)NC(C(C)C)C(=O)N2CCCC2C(=O)NC1C (stereo not drawn) [Compound 307, CH3—(CH2)13—NH—C(═O)-Gly-Amphomycin] ({NHtetradecyl-CO}-GD[ξAbu(βξ-NH2)][Pip][ξAsp(βξ-Me)]DGDG[ξAbu(3ξ-NH2)]VP; lactam 3-C; configuration not given here)	0.5
CCCCCCCCCCCCCCC(=O)NC(CC(=O)O)C(=O)NC1C(=O)N2CCCCC2C(=O)NC(C(C)C(=O)O)C(=O)NC(CC(=O)O)C(=O)NCC(=O)NC(CC(=O)O)C(=O)NCC(=O)NC(C(C)NC(=O)CN(C)C(=O)CCCCCN)C(=O)NC(C(C)C)C(=O)N2CCCC2C(=O)NC1C (centres unmarked) [Compound 198, C15-Amphomycin-9-Sar-Ahx]	4

Same assay, conditions: S. aureus (MSSA), CAMHB supplemented with 0.625 mM calcium, 24 hours at about 37° C.; a range = compound tested multiple times

Molecule	MIC
C17-Amphomycin-Gly-Lys [Compound 142]	142/32 μg/mL
CCCCCCCCCCCCCC(=O)NC(CC(=O)O)C(=O)NC1C(=O)N2CCCCC2C(=O)NC(C(C)C(=O)O)C(=O)NC(CC(=O)O)C(=O)NCC(=O)NC(CC(=O)O)C(=O)NCC(=O)NC(C(C)NC(=O)CN)C(=O)NC(C(C)C)C(=O)N2CCCC2C(=O)NC1C (centres unmarked) [Compound 23, C14-Amphomycin-9-Gly]	23/8-16 μg/mL
CCCCCCCCCC(=O)NC(CC(=O)O)C(=O)NC1C(=O)N2CCCCC2C(=O)NC(C(C)C(=O)O)C(=O)NC(CC(=O)O)C(=O)NCC(=O)NC(CC(=O)O)C(=O)NCC(=O)NC(C(C)NC(=O)CNC)C(=O)NC(C(C)C)C(=O)N2CCCC2C(=O)NC1C (centres unmarked) [Compound 77, C10-Amphomycin-9-Sar]	77/32 μg/mL
CCCCCCCCCCCCCCC(=O)NC(CC(=O)O)C(=O)NC1C(=O)N2CCCCC2C(=O)NC(C(C)C(=O)O)C(=O)NC(CC(=O)O)C(=O)NCC(=O)NC(CC(=O)O)C(=O)NCC(=O)NC(C(C)NC(=O)[C@@H]2CCC(=O)O2)C(=O)NC(C(C)C)C(=O)N2CCCC2C(=O)NC1C (stereo partly drawn) [Compound 210, C15-Amphomycin-9-((S)-(+)-5-Oxo-2-Tetrahydrofurancarbonyl)]	2 µg/mL
